Experimental data from US10947242B2, “[1,2,4]triazolo[1,5and#8208;A]pyrimidine compounds as PDE2 inhibitors” (Janssen Pharmaceutica NV, priority 2016, dated 2021).
Several values for one entry are separate records, joined by “and”; a condition that tells them apart may be missing. Identical values can stand only once. Like-named read-outs stand apart in the source and are kept apart here.

What was measured:
[1] = target: T1, Human recombinant PDE2A (hPDE2A) (Homo sapiens, UniProt O00408); experiment: In vitro assay PDE2A (SPA, 3H-cGMP hydrolysis); format: biochemical; details: for IC50: read-out: hPDE2A pIC50 (converted); for Emax: read-out: hPDE2A Emax
T1 construct: His tag (inferred from metal chelate purification); made in house; host or cells: Sf9 insect cells (baculovirus)
T1 sequence (O00408 whole entry): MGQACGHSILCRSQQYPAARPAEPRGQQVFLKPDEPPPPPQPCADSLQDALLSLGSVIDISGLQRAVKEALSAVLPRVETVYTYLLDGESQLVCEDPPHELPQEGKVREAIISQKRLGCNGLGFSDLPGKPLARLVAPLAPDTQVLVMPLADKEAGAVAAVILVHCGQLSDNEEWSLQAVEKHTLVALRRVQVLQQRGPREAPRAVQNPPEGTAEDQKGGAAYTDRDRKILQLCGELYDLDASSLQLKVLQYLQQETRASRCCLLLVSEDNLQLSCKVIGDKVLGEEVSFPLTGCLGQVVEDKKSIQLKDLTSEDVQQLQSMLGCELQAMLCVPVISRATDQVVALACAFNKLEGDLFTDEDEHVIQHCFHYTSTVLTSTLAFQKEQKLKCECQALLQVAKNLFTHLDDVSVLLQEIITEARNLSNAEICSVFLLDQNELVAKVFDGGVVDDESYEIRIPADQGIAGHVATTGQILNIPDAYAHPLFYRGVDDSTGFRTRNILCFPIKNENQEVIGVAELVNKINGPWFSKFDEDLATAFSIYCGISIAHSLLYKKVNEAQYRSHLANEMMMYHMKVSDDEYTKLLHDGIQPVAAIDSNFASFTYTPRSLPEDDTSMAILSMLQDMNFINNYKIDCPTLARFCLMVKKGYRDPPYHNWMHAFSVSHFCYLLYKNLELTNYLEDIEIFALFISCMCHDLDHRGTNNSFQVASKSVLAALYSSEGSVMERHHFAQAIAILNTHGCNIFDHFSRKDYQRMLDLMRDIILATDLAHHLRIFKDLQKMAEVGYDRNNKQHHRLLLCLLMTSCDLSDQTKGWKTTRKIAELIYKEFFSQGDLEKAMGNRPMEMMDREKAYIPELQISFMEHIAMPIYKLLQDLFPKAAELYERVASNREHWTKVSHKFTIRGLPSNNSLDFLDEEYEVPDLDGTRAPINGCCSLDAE

[2] = target: T2, Human recombinant PDE3A (hPDE3A) (Homo sapiens, UniProt Q14432); experiment: In vitro assay PDE3A (SPA, 3H-cAMP hydrolysis); format: biochemical; details: for IC50: hPDE3B pIC50, read-out: pIC50 (converted); for Emax: read-out: hPDE3B Emax, read-out: Emax;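 for all read-outs here: the method names PDE3A and the table heading PDE3B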
T2 construct: purchased Scottish Biomedical; host or cells: Sf9 insect cells
T2 sequence (Q14432 whole entry): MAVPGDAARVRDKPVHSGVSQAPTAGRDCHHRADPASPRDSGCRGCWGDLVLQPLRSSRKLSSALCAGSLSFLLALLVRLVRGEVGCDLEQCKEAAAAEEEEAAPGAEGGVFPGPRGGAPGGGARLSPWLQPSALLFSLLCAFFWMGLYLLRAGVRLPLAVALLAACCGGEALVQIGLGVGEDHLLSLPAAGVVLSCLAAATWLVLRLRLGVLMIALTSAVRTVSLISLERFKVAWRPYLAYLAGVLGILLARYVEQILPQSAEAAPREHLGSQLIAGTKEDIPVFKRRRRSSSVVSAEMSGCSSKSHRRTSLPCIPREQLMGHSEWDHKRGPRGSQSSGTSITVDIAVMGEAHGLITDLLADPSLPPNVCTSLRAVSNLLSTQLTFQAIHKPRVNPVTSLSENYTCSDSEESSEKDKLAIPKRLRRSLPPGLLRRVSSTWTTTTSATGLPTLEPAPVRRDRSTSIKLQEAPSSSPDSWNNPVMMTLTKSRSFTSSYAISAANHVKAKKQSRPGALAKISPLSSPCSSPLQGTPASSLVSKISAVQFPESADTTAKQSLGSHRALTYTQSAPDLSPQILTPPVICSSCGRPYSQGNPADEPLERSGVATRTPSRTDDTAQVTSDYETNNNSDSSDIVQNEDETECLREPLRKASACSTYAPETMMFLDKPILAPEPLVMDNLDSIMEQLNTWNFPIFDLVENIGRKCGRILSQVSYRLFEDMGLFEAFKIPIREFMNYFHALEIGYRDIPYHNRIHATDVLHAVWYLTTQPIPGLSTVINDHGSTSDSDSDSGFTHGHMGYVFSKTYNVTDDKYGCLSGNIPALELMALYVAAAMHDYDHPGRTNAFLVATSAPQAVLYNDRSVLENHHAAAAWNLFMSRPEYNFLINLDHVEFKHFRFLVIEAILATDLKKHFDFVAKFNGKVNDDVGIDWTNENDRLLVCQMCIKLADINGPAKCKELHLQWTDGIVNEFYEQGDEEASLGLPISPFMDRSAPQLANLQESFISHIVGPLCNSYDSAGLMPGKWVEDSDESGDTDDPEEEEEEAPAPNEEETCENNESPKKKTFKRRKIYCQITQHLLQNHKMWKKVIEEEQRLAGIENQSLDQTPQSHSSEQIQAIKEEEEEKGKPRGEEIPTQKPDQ
Procedure, shortened: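 Radiometric SPA measuring [3H]-cAMP hydrolysis (0.4 μM cAMP, 2.4 μCi/ml) over 60 min at room temperature, in Tris pH 7.8 buffer with MgCl2 and EGTA, 1% DMSO. Enzyme: recombinant human brain PDE3A expressed in Sf9 cells, used as partially purified lysate. Counts compared with enzyme-free blanks and vehicle controls.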

[3] = target: T3, Human recombinant PDE10A (hPDE10A) (Homo sapiens, UniProt Q9Y233); experiment: In vitro assay PDE10A, human clone (SPA, 3H-cAMP hydrolysis); format: biochemical; details: human clone (h), default; for Emax: read-out: hPDE10A2 Emax; for IC50: read-out: hPDE10A2 pIC50 (converted)
T3 construct: His tag (inferred from metal chelate purification); made in house; host or cells: Sf9 insect cells (baculovirus)
T3 sequence (Q9Y233 267-1055): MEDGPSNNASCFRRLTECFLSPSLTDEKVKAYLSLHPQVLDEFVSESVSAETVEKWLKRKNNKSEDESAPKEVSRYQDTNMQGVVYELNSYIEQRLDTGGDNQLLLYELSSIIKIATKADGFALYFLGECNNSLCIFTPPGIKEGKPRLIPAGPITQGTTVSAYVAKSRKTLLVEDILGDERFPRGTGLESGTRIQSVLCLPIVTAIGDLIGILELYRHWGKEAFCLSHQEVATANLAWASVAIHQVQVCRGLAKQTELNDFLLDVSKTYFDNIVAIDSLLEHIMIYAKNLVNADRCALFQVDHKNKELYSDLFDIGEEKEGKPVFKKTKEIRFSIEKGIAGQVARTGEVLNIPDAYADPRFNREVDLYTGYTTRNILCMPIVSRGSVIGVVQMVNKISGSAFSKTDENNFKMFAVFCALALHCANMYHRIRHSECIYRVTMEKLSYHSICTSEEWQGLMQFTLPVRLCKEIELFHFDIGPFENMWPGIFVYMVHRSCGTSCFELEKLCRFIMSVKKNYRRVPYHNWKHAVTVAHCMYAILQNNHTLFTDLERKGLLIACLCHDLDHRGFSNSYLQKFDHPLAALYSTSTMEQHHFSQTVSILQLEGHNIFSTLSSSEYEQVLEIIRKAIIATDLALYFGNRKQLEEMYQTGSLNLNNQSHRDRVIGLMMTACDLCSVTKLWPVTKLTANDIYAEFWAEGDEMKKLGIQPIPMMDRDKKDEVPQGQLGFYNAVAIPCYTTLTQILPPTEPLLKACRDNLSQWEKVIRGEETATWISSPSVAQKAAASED
Procedure, shortened: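 Hydrolysis of 3H-cAMP (60 nM cAMP, 0.008 μCi tracer) proceeded for 60 min at room temperature, with the product detected by SPA bead scintillation counting. The enzyme was hPDE10A from baculovirus-infected Sf9 cells in Tris pH 7.8 buffer with MgCl2 and EGTA, and compounds were at 1% DMSO final. Blanks lacked enzyme.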

[4] = target: T4, Rat recombinant PDE10A (rPDE10A2) (Rattus norvegicus, UniProt Q9QYJ6); experiment: In vitro assay PDE10A, rat clone (SPA, 3H-cAMP hydrolysis); format: biochemical; details: for IC50: read-out: rPDE10A2 pIC50 (converted)
T4 construct: His tag (inferred from metal chelate purification); made in house; host or cells: Sf9 insect cells (baculovirus)
T4 sequence (Q9QYJ6 1-794): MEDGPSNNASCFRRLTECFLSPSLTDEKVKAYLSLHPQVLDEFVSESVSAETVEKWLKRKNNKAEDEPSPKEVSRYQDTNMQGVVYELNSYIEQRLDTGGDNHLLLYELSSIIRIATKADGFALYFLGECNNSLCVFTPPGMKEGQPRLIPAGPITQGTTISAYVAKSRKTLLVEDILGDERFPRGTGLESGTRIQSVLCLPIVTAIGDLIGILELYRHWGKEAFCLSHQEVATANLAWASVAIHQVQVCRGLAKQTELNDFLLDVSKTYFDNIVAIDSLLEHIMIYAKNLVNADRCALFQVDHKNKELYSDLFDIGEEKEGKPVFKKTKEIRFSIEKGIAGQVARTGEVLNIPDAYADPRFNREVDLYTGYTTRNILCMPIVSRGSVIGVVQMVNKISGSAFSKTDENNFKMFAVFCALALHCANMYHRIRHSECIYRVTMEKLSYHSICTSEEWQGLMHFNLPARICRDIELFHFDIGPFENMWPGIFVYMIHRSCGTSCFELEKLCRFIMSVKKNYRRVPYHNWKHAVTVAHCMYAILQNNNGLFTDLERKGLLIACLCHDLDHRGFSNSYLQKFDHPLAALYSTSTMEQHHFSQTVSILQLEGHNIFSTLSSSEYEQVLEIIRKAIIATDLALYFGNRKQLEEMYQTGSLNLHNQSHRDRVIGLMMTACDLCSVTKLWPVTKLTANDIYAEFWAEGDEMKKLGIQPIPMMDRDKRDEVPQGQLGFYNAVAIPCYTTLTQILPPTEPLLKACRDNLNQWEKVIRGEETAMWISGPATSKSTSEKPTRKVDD
Method: Rat recombinant PDE10A (rPDE10A2) was expressed in Sf9 cells using a recombinant rPDE10A baculovirus construct. Cells were harvested after 48 h of infection and the rPDE10A protein was purified by metal chelate chromatography on Ni-sepharose 6FF. Tested compounds were dissolved and diluted in 100% DMSO to a concentration 100 fold of the final concentration in the assay. Human recombinant PDE10A ([…]) was expressed in Sf9 cells using a recombinant hPDE10A baculovirus that was made and amplified in house. Cells were harvested after 72 h of infection and the hPDE10A protein was purified by metal chelate chromatography on Ni-sepharose. Compound dilutions (0.4 μl) were added in 384 well plates to 20 μl of incubation buffer (50 mM Tris pH 7.8, 8.3 mM MgCl2, 1.7 mM EGTA). 10 μl of rPDE10A or hPDE10A enzyme in incubation buffer was added and the reaction was started by addition of 10 μl substrate to a final concentration of 60 nM cAMP and 0.008 μCi ^3H-cAMP. The reaction was incubated for 60 minutes at room temperature. After incubation, the reaction was stopped with 20 μl of stop solution consisting of 17.8 mg/ml PDE SPA (scintillation proximity assay) beads. After sedimentation of the beads during 30 minutes the radioactivity was measured in a Perkin Elmer Topcount scintillation counter and results were expressed as cpm. For blanc values the enzyme was omitted from the reaction and replaced by incubation buffer. Control values were obtained by addition of a final concentration of 1% DMSO instead of compound. A best fit curve is fitted by a minimum sum of squares method to the plot of % of control value subtracted with blanc value versus compound concentration and the half maximal inhibitory concentration (IC50) value is derived from this curve.

PDE2A = target: T5, PDE2A (Rattus norvegicus, UniProt Q01062); experiment: PDE2 occupancy by test compounds, ex-vivo autoradiography with [3H]B-17a; format: in vivo, Male Wistar rats; details: route PO (oral)
T5 construct: Twenty μm-thick striatal sections were cut; from tissue; host or cells: rat brain, striatal sections
T5 sequence (Q01062 1-928): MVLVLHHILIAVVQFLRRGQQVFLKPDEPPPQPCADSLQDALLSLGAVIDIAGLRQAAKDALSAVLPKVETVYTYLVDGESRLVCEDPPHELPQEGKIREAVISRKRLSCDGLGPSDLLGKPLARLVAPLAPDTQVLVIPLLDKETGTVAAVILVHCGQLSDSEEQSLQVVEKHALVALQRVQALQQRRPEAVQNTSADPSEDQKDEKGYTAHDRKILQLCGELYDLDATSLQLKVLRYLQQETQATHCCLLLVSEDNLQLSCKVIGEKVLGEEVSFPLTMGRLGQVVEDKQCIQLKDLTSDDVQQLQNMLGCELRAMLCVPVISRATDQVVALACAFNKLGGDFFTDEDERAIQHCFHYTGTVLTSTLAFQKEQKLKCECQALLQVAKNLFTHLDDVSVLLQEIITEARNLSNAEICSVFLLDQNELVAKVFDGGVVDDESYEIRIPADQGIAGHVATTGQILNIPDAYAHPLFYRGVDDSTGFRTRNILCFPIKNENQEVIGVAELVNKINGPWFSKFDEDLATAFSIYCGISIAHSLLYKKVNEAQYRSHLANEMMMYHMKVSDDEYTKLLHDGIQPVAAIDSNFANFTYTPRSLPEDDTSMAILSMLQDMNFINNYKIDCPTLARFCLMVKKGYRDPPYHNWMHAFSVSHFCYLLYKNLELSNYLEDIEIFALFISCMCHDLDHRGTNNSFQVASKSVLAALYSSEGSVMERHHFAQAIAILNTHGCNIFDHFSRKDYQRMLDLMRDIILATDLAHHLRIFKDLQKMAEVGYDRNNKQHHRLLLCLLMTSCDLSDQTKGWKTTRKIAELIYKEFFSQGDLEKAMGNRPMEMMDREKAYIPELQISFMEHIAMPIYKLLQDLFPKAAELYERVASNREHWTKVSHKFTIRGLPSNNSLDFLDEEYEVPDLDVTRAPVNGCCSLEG

[5] = system: hippocampal Shaffer collateral-CA1 synapses; details: for Basal synaptic transmission, change versus vehicle-treated control during baseline pre-tetanus: urethane-anesthetized rats, SC-CA1 fEPSP slope; for Enduring (>2 h) synaptic potentiation after HFS (fEPSP slope, % of pre-tetanus baseline): vehicle level 119±4%; for fEPSP slope at 0-30 min after completion of the tetanization: vehicle level 139±1%
[6] = human recombinant PDE2A, 10 μM cGMP substrate

IC50 [1, 6] [nM]	Emax ([1]; human recombinant PDE2A) [%]	Emax [1] [%]	IC50 [1] [nM]	IC50 [2] [nM]	Emax [2] [%]	Emax [3] [%]	IC50 [3]	melting point [°C]	Emax ([4]; rat clone (r)) [%]	IC50 ([4]; rat clone (r)) [nM]	rPDE10A2 pIC50 ([4]; rat clone, indicated as (r))	Structure (SMILES)	further results
0.355	101	101	0.355	7080	58	97	123 nM	181.11	–	–	–	C[C@@H]1CCN(C(=O)c2ccc3nccn3c2)C[C@H]1c1cc(C(F)F)nc2ncnn12 [Compound 40]	rPDE10A2 pIC50 ([4]; rat clone (r)): 7.1 (r); Emax ([4]; rat clone, indicated as (r)): 96%; IC50 ([4]; rat clone, indicated as (r)): 79.4 nM
646	61	61	646	> 10000	24	–	–	140.14	-1	3090	5.51 (r)	CC1(c2cc(C(F)F)nc3ncnn23)CCCN(C(=O)c2ccc3occc3c2)C1 (stereo not shown) [Compound 201]	–
2690	30	30	2690	> 10000	18	38	> 10000 nM	78.65	4	> 10000	<5 (r)	CC1(c2ccnc3ncnn23)CCCN(C(=O)c2ccc3occc3c2)C1 (stereo not shown) [Compound 202]	–

Structure (SMILES)	IC50 [1, 6] [nM]	Emax ([1]; human recombinant PDE2A) [%]	Emax [1] [%]	IC50 [1] [nM]	IC50 [2] [nM]	Emax [2] [%]	Emax [3] [%]	IC50 [3]	melting point [°C]	Emax ([4]; rat clone (r)) [%]	IC50 ([4]; rat clone (r)) [nM]	rPDE10A2 pIC50 ([4]; rat clone, indicated as (r))	further results
COc1cc(C(=O)N2CC[C@@H](C)[C@H](c3cc(C(F)F)nc4ncnn34)C2)cc(C)n1 [Compound 110]	0.955	101	100	1.32	3390	76	98	72.4 nM and 112 nM	–	–	–	–	receptor occupancy at 10 mg/kg (PDE2A; po, 10 mg/kg, percentage receptor occupancy, ex-vivo autoradiography, striatum): 75%; ED50 (PDE2A; drug dose producing 50% receptor occupancy, read-out: PDE Occupancy ED50): 8.3 mg/kg; Basal synaptic transmission, change versus vehicle-treated control during baseline pre-tetanus ([5]; 20 mg/kg subcutaneous): +8%; Enduring (>2 h) synaptic potentiation after HFS (fEPSP slope, % of pre-tetanus baseline) ([5]; 20 mg/kg subcutaneous): 137±8%; fEPSP slope at 0-30 min after completion of the tetanization ([5]; 20 mg/kg subcutaneous, p<0.05): 153±5%; Basal synaptic transmission, change versus vehicle-treated control during baseline pre-tetanus ([5]; 40 mg/kg subcutaneous): 9%; fEPSP at 90-120 min after tetanization ([5]; 40 mg/kg subcutaneous, vehicle level 106±13%, p<0.05): 129±5%; fEPSP at 60-90 min after tetanization ([5]; 40 mg/kg subcutaneous, vehicle level 116±9, p<0.05): 137±5%; Enduring (>2 h) synaptic potentiation after HFS (fEPSP slope, % of pre-tetanus baseline) ([5]; 40 mg/kg subcutaneous): 142±5%; fEPSP at 30-60 min after tetanization ([5]; 40 mg/kg subcutaneous, vehicle level 125±6, p<0.05): 146±6%; fEPSP slope at 0-30 min after completion of the tetanization ([5]; 40 mg/kg subcutaneous, p<0.05): 155±4%; Overall effect on basal synaptic transmission and LTP in vivo ([5]; 20 and 40 mg/kg subcutaneous, anesthetized rats): facilitates basal synaptic transmission and LTP in vivo; Slope of the SC-CA1 path fEPSPs across the I/O curves (excitability of CA1 cells) ([5]; 20 and 40 mg/kg versus vehicle, FIG. 16b, c): No differences
